Usually EC50 stands for the concentration that produces a half-maximal response.

The structures appear in SMILES notation.

Here are results for 18 compounds from patent US9212171B2, “Ethynyl compounds” (Hoffmann-La Roche Inc., priority 2011, dated 2015).

The target in the experiment is human mGlu5a receptor (Homo sapiens (Human), UniProt P41594). In words: Intracellular Ca2+ mobilization assay (mGlu5 PAM). It counts as cell-based. The note with it: for EC50: HEK-293 cells stably transfected with human mGlu5a, L-glutamate added at EC20 (typically around 80 μM); for Emax / Eff. (%): maximal response in % of the maximal stimulatory effect obtained with saturating concentrations of L-glutamate; for Emax: read-out: Eff. (%). The procedure: A monoclonal HEK-293 cell line stably transfected with a cDNA encoding for the human mGlu5a receptor was generated; for the work with mGlu5 Positive Allosteric Modulators (PAMs), a cell line with low receptor expression levels and low constitutive receptor activity was selected to allow the differentiation of agonistic versus PAM activity. Cells were cultured according to standard protocols (Freshney, 2000) in Dulbecco's Modified Eagle Medium with high glucose supplemented with 1 mM glutamine, 10% (vol/vol) heat-inactivated bovine calf serum, Penicillin/Streptomycin, […] hygromycin and 15 μg/ml blasticidin (all cell culture reagents and antibiotics from Invitrogen, Basel, Switzerland).
About 24 hrs before an experiment, 5×10^4 cells/well were seeded in poly-D-lysine coated, black/clear-bottomed 96-well plates. The cells were loaded with 2.5 μM Fluo-4AM in loading buffer (1×HBSS, 20 mM HEPES) for 1 hr at 37° C. and washed five times with loading buffer. The cells were transferred into a Functional Drug Screening System 7000 (Hamamatsu, Paris, France), and 11 half logarithmic serial dilutions of test compound at 37° C. were added and the cells were incubated for 10-30 min. with on-line recording of fluorescence. Following this pre-incubation step, the agonist L-glutamate was added to the cells at a concentration corresponding to EC20 (typically around 80 μM) with on-line recording of fluorescence; in order to account for day-to-day variations in the responsiveness of cells, the EC20 of glutamate was determined immediately ahead of each experiment by recording of a full dose-response curve of glutamate.
Responses were measured as peak increase in fluorescence minus basal (i.e. fluorescence without addition of L-glutamate), normalized to the maximal stimulatory effect obtained with saturating concentrations of L-glutamate. Graphs were plotted with the % maximal stimulatory using XLfit, a curve fitting program that iteratively plots the data using Levenburg Marquardt algorithm. The single site competition analysis equation used was y=A+((B−A)/(1+((x/C)D))), where y is the % maximal stimulatory effect, A is the minimum y, B is the maximum y, C is the EC50, x is the log 10 of the concentration of the competing compound and D is the slope of the curve (the Hill Coefficient). From these curves the EC50 (concentration at which half maximal stimulation was achieved), the Hill coefficient as well as the maximal response in % of the maximal stimulatory effect obtained with saturating concentrations of L-glutamate were calculated.
A depression of the signal observed after addition of the EC20 concentration of L-glutamate was indicative of an inhibitory activity of the test compound.

Sequence of human mGlu5a receptor (P41594 other isoform, or with tags, fused parts or gaps): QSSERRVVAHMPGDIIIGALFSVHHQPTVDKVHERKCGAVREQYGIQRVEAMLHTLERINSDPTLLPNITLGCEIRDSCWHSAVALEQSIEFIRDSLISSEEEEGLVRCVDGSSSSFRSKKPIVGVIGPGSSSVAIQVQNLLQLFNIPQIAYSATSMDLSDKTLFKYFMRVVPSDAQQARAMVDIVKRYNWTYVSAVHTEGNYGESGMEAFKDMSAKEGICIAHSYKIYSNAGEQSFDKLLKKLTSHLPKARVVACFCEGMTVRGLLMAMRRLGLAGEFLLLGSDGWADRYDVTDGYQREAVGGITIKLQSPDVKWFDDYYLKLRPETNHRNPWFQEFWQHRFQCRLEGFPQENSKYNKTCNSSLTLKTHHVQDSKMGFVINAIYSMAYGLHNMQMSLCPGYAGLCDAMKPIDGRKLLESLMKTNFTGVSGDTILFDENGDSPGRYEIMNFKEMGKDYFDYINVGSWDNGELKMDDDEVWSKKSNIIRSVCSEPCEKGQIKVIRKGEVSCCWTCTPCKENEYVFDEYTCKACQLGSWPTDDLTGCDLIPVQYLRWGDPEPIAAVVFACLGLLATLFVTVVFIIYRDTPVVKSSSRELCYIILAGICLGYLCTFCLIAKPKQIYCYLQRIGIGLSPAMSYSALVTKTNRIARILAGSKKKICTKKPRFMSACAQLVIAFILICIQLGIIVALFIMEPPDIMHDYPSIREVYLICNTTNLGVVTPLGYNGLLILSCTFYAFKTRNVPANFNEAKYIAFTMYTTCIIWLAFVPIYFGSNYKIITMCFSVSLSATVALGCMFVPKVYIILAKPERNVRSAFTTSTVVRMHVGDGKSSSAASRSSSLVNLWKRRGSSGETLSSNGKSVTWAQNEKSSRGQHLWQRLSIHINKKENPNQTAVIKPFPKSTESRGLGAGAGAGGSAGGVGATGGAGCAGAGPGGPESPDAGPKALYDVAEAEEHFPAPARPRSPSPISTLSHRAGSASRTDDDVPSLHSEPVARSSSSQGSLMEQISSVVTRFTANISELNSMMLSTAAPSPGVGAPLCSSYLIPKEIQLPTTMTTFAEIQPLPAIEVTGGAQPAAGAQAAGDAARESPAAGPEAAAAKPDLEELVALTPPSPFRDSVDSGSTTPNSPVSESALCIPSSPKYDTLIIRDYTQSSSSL

Turning to `CN1C(=O)[C@H](c2ccc(C#Cc3ccccc3)cn2)[C@@H]2CCCC[C@@H]21` (racemic) [Example 35, (3SR,6SR,7SR)-1-Methyl-3-(5-phenylethynyl-pyridin-2-yl)-octahydro-indol-2-one], the EC50 was determined as 101 nM and the Emax was 60%.

`CN1C(=O)[C@@H](c2ccc(C#Cc3cccc(F)c3)cn2)[C@@H]2CCCC[C@@H]21` (racemic) [Example 38, (3RS,6SR,7SR)-3-[5-(3-Fluoro-phenylethynyl)-pyridin-2-yl]-1-methyl-octahydro-indol-2-one]: the EC50 was determined as 69 nM and the Emax worked out at 60%.

Turning to `CN1C(=O)[C@H](c2ccc(C#Cc3cccc(F)c3)cn2)[C@@H]2CCCC[C@@H]21` (racemic) [Example 39, (3SR,6SR,7SR)-3-[5-(3-Fluoro-phenylethynyl)-pyridin-2-yl]-1-methyl-octahydro-indol-2-one], the EC50 worked out at 141 nM and the Emax turned out to be 61%.

For `CN1C(=O)C(c2ccc(C#Cc3ccnc(Cl)c3)cn2)CC1(C)C` (racemic) [Example 44, (RS)-3-[5-(2-Chloro-pyridin-4-ylethynyl)-pyridin-2-yl]-1,5,5-trimethyl-pyrrolidin-2-one], the response was half-maximal at 88 nM (EC50) and the Emax was 32%.

Regarding `CN1CCCC[C@@H](c2ccc(C#Cc3ccccc3)cn2)C1=O` (single isomer, unassigned) [Example 25, (S or R)-1-Methyl-3-(5-phenylethynyl-pyridin-2-yl)-azepan-2-one], the EC50 came to 35 nM and the Emax stood at 70%.

With `CN1CCCC[C@H](c2ccc(C#Cc3ccccc3)cn2)C1=O` (single isomer, unassigned) [Example 26, (R or S)-1-Methyl-3-(5-phenylethynyl-pyridin-2-yl)-azepan-2-one], a half-maximal effect (EC50) was put at 265 nM and the Emax worked out at 69%.

Consider `CN1C(=O)[C@@H](c2ccc(C#Cc3ccccc3)cn2)[C@@H]2CCC[C@@H]21` (single isomer, unassigned) [Example 28, (3R,3aS,6aS) or (3S,3aR,6aR)-1-Methyl-3-(5-phenylethynyl-pyridin-2-yl)-hexahydro-cyclopenta[b]pyrrol-2-one], for which the EC50 came out at 24 nM and the “Eff. (%)” value stood at 58%.

With `CN1C(=O)[C@@H](c2ccc(C#Cc3cccc(F)c3)cn2)[C@@H]2CCC[C@@H]21` (single isomer, unassigned) [Example 31, (3R,3aS,6aS) or (3S,3aR,6aR)-3-[5-(3-Fluoro-phenylethynyl)-pyridin-2-yl]-1-methyl-hexahydro-cyclopenta[b]pyrrol-2-one], the response was half-maximal at 25 nM (EC50) and the “Eff. (%)” value was determined as 51%.

On to `CN1C(=O)[C@H](c2ccc(C#Cc3cccc(F)c3)cn2)[C@H]2CCC[C@H]21` (single isomer, unassigned) [Example 32, (3S,3aR,6aR) or (3R,3aS,6aS)-3-[5-(3-Fluoro-phenylethynyl)-pyridin-2-yl]-1-methyl-hexahydro-cyclopenta[b]pyrrol-2-one], for which the EC50 is 48 nM and the Emax came to 68%.

Consider `CN1C(=O)[C@@H](c2ccc(C#Cc3ccnc(Cl)c3)cn2)CC1(C)C` (single isomer, unassigned) [Example 45, (S) or (R)-3-[5-(2-Chloro-pyridin-4-ylethynyl)-pyridin-2-yl]-1,5,5-trimethyl-pyrrolidin-2-one], for which a half-maximal response (EC50) required 65 nM and the Emax came out at 36%.

Regarding `CN1C(=O)[C@H](c2ccc(C#Cc3ccnc(Cl)c3)cn2)CC1(C)C` (single isomer, unassigned) [Example 46, (R) or (S)-3-[5-(2-Chloro-pyridin-4-ylethynyl)-pyridin-2-yl]-1,5,5-trimethyl-pyrrolidin-2-one], a half-maximal effect (EC50) was put at 103 nM and the Emax worked out at 40%.

Regarding `CN1C(=O)C(c2ccc(C#Cc3ccc(F)cc3)nn2)CC1(C)C` (stereo not drawn) [Example 10, 3-(6-((4-fluorophenyl)ethynyl)pyridazin-3-yl)-1,5,5-trimethylpyrrolidin-2-one], the EC50 worked out at 247 nM and the Emax came out at 99%.

For `CN1C(=O)[C@@H](c2ccc(C#Cc3ccccc3)cn2)[C@@H]2CCCC[C@@H]21` [Example 36, (3R,6S,7S)-1-Methyl-3-(5-phenylethynyl-pyridin-2-yl)-octahydro-indol-2-one], the EC50 came out at 84 nM and the Emax stood at 92%.

Turning to `CN1C(=O)[C@H](c2ccc(C#Cc3ccccc3)cn2)[C@H]2CCCC[C@H]21` [Example 37, (3S,6R,7R)-1-Methyl-3-(5-phenylethynyl-pyridin-2-yl)-octahydro-indol-2-one], the midpoint of the response, the EC50, lay at 84 nM and the Emax amounted to 49%.

Regarding `CN1C(=O)[C@@H](c2ccc(C#Cc3cccc(F)c3)cn2)[C@@H]2CCCC[C@@H]21` [Example 40, (3R,6S,7S)-3-[5-(3-Fluoro-phenylethynyl)-pyridin-2-yl]-1-methyl-octahydro-indol-2-one], the EC50 was 89 nM and the Emax was determined as 68%.

On to `CN1C(=O)[C@H](c2ccc(C#Cc3cccc(F)c3)cn2)[C@H]2CCCC[C@H]21` [Example 41, (3S,6R,7R)-3-[5-(3-fluoro-phenylethynyl)-pyridin-2-yl]-1-methyl-octahydro-indol-2-one], for which the half-maximal effective concentration (EC50) stood at 68 nM and the Emax worked out at 56%.

`CN1C(=O)[C@@H](c2ccc(C#Cc3ccc(F)cc3)cn2)[C@@H]2CCCC[C@@H]21` [Example 42, (3R,6S,7S)-3-[5-(4-Fluoro-phenylethynyl)-pyridin-2-yl]-1-methyl-octahydro-indol-2-one]: the 50% effective concentration (EC50) was 57 nM and the Emax worked out at 63%.

On to `CN1C(=O)[C@H](c2ccc(C#Cc3ccc(F)cc3)cn2)[C@H]2CCCC[C@H]21` [Example 43, (3S,6R,7R)-3-[5-(4-fluoro-phenylethynyl)-pyridin-2-yl]-1-methyl-octahydro-indol-2-one], for which a half-maximal response (EC50) required 146 nM and the Emax came to 53%.
